Experimental data: patent US20090208445A1, “Compositions Comprising Eucalyptol And/Or Ocimene And/Or Farnesol For Use As Bumblebee Pheromones” (QUEEN MARY & WESTFIELD COLLEGE, priority 2005, published 2009)

What was measured:
[1] = tested on: Bombus terrestris; experiment: Behavioural effect of individual compounds on forager recruitment (foragers leaving the nest in search for food); format: in vivo; conditions: 10 μl of 200 mg l-1 in acetone on filter paper in nest box lid every 5 min for 30 min vs preceding 30 min; 7 repeats, Wilcoxon test
Protocol: All experiments were performed with lab-reared colonies of Bombus terrestris with 30-50 workers. A total of ten colonies were used. Each nest was contained in a wooden box (26 cm·14 cm·10 cm), which was connected to a foraging arena (40 cm·60 cm·30 cm) with a Plexiglas tube of 30 cm length. Nest box and foraging arena had transparent Plexiglas covers, so that the behaviour of the bees could be observed. The arena contained a feeder at certain times of the experiment (see below).
To this end, 10 μl of solution of the individual compounds at 200 mg 1^−1 acetone, were dispensed onto a filter paper placed in a glass tube in the lid of the nest box. This was repeated every 5 minutes for half an hour, and numbers of foragers entering the flight arena in search for food were counted in 5 min intervals during the experimental half hour and in the preceding 30 min (control period). This experiment was repeated 7 times which each individual compound. In addition, 7 control runs were performed with acetone, to exclude the possibility that the solvent itself provoked a behavioural response. Tests were done in random sequence with three bumblebee colonies, with at least 4 h between tests on a single colony. None of the compounds were tested twice on the same day with the same colony.

[2] = tested on: Bombus terrestris; experiment: Mobilisation of individually marked foragers of a colony by eucalyptol; format: in vivo
Protocol: To this end, all foragers were marked that arrived at an ad libitum sucrose feeder in a flight arena connected to a large nest (with >80 workers), over a period of two days. Bees were given individual number plates (Opalith). Then the colony was starved for 1 day, and on the next day, a sucrose feeder was inserted into the arena for one hour. After 30 min, the colony was exposed to eucalyptol as described above. Bees were caught immediately upon arrival, so that they could not provide feedback to the colony.

## CC(C)=CCCC(C)=CCCC(C)=CCO [E,E-farnesol, 3,7,11-trimethyl-2,6,10-dodecatrien-1-ol]
[1]
  Effect on numbers of foragers leaving the nest in search for food: non-significant rise in activity

## CC12CCC(CC1)C(C)(C)O2 [Eucalyptol, 1,3,3-Trimethyl-2-oxabicyclo[2.2.2.]octane]
[1]
  Effect on numbers of foragers leaving the nest in search for food: strongest response
[2]; 13 remaining of 17 active foragers
  Time for the remaining foragers to arrive after exposure of the colony: ≤ 15 min
[2]; colony with 17 active marked foragers, starved 1 day, eucalyptol inserted after 30 min
  Forager force of the colony activated: entire forager force of the colony was activated
[2]; of 17 active foragers, 4 had arrived in the 30 min before exposure
  Number of foragers arriving at the feeder after exposure of the colony: 13 foragers
